Experiments:
[1] = target: T1, F508del CFTR (Homo sapiens, UniProt P13569, DEL508-508); assay: total level and trafficking (TrIdx) of F508del in F508del-CFBE41o− cells; format: cell-based
T1 construct: expressed in transfected cells
Text: (§1) FIG. 2 illustrates an example process of variant spatial profiling (VSP) to generate a phenotype landscape 300 of FIG. 1. VSP uses a sparse collection of variants with known position and phenotypical traits. Each of the variants is positioned on the x-axis by their normalized position in the linear polypeptide sequence, where the full-length chain is assigned a value of 1.0, referred to as the variant sequence position (VarSeqP). The value of a phenotypic feature of each variant's (in this example the trafficking index, TrIdx) to the y-axis. The trafficking index (TrIdx) is the normalized ratio of the fraction of variants exported from the ER relative to the total variant level in the cell, where the value of the WT CFTR TrIdx is assigned a value of 1.0. In this example, the sequence position and TrIdx values are correlated to CFTR chloride conductance (CICon). The normalized CICon is assigned to the z-coordinate, where the value of the WT CFTR CICon is assigned a value of 1.0.
Referring now to FIG. 13, to address whether the correction of CICon in response to temperature is due to energetic features associated with global SCV relationships responsible for membrane trafficking of CFTR from the ER, we built the VarC map for the CFTR trafficking index (TrIdx) of variants following shift from 37° C. to 27° C. TrIdx quantifies the amount of CFTR in post-ER compartments relative to total CFTR in the cell as a measure of efficiency of ER export. The pairwise-residue based TS/TrIdx-VarC map (FIG. 13, upper left panel) and its corresponding TS/TrIdx-functional-response-structure (FIG. 13, upper second from left panel) reveal that only a limited subset of sequence residues contributes to TrIdx correction upon temperature shift. These include: 1) a sequence region containing F508 (FIG. 13, upper left panel, inset zoom); 2) a region in NBD1 domain including variants L558S, A559T, R560K/T and Y569D that are surrounding the CFTR di-acidic code (YKDAD (residues 563-567)) required for COPII dependent ER export (FIG. 13 upper left panel, inset zoom); 3) a sequence region in ICL4 that is reported by CF variants L1065P and L1077P (13) (FIG. 13, upper left panel, inset zoom). Even though separated in primary sequence, these responding regions cluster together in structure (FIG. 13, upper second from left panel). Overlap of MDC maps and corresponding MDC structures between TS/CICon and TS/TrIdx identifies a common energetic sensitive core (FIG. 13, right side, red) responding to temperature shift for both TrIdx and CICon function. This SCV based energetic sensitive core contains the F508-L1065 covariant link that bridges NBD1 (F508) and ICL4 (L1065) (FIG. 13, right panel, inset zoom, red), mechanistically explaining the previous observation that the NBD1-ICL4 interaction is crippled by F508del.
Consistent with previous results, using F508del-CFBE41o− cells, a bronchial epithelial cell line stably expressing the F508Del CFTR transgene, we found ELEXA alone can increase both the total level and the trafficking efficacy of F508del.
To test whether we can add value to the pairwise-residue networks targeted by TRIKA to improve TRIKA benefit for CF by restoring the lost energetics of the fold in response to F508del affecting the function of di-acidic exit code, we measured the impact of ELEXA and TRIKA impact on F508del at 27° C.

[2] = target: T1, F508del CFTR; assay: steady-state CICon at the cell surface of WT and F508del; format: cell-based; conditions: F508del relative to WT
Text: as §1
To assess how TrIdx is coupled to CICon at the cell surface in response to ELEXA or TRIKA, we assessed the steady-state CICon at the cell surface of WT and F508del. […] To understand the impact of ELEXA and TRIKA on the SCV relationships spanning the entire CFTR polypeptide, we measured the CICon responses for 64 CF variants. […]

[3] = F508del at 27° C. compared to 37° C.
[4] = F508del-CFBE41o− cells, compound alone

T1 sequence (P13569 with tags, fused parts or gaps DEL508-508): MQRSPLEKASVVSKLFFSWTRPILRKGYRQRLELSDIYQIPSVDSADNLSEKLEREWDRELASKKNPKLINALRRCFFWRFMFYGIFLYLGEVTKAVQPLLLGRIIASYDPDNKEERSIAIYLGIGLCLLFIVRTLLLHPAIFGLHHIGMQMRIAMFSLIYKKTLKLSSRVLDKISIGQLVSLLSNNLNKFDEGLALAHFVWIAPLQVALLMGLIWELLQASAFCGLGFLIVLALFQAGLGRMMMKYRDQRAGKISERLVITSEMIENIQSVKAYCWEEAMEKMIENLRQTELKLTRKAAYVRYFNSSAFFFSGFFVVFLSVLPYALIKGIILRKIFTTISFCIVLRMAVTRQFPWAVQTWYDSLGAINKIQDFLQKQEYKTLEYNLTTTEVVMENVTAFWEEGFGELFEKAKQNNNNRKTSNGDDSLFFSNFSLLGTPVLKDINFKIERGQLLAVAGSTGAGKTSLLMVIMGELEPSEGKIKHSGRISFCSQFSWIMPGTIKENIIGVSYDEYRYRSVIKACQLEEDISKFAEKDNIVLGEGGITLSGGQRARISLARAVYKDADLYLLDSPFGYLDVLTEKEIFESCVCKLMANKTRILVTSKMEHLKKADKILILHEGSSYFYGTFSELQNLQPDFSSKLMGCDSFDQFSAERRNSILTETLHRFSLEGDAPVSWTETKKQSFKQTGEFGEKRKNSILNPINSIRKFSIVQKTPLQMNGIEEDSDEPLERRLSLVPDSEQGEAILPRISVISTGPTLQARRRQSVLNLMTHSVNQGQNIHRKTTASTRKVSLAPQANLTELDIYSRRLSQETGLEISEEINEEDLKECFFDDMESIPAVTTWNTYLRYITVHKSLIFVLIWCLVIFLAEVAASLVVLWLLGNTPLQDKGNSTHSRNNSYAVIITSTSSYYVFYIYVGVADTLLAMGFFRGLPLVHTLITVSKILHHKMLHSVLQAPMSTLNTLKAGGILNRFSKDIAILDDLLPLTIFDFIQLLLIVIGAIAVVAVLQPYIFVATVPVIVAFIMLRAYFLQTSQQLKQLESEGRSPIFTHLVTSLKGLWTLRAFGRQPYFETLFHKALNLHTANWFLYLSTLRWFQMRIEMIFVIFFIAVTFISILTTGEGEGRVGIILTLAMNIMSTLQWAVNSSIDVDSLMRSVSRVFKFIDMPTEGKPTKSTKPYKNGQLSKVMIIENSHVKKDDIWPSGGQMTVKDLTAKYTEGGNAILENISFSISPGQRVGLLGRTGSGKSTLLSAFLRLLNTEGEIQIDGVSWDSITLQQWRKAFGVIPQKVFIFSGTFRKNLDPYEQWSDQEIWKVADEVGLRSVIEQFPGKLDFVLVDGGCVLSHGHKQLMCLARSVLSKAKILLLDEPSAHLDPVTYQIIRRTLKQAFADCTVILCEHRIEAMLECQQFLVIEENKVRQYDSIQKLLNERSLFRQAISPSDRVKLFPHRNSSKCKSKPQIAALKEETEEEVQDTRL

Row | Compound | level of post-ER band C [1, 3] | total CFTR [1, 3] | trafficking efficiency (band C relative to total) [1, 3] | total level of F508del [1, 4] | trafficking efficacy of F508del [1, 4] | CICon function for F508del [2] | impact on TrIdx ([1]; F508del-CFBE41o− cells, IVA added to ELEXA)
1 | Cc1nn(C)cc1S(=O)(=O)NC(=O)c1ccc(-n2ccc(OCC(C)(C)C(F)(F)F)n2)nc1N1C[C@@H](C)CC1(C)C [ELEXA, Elexacaftor] | dramatic improvement | dramatic improvement | dramatic improvement | can increase | can increase | ~20 % of WT | –
2 | CC(C)(C)c1cc(C(C)(C)C)c(NC(=O)c2c[nH]c3ccccc3c2=O)cc1O [IVA, Ivacaftor] | – | – | – | – | – | – | no additional impact

From patent US20240404621A1, “THERAPEUTIC DEVELOPMENT PLATFORM COMPRISING VARIANT CAPTURE MAPS AND OTHER VISUALIZATIONS” (The Scripps Research Institute, priority 2021, published 2024)
